Experimental findings from EP0583821A1, “Atriopeptins, guanylate cyclase activators, and phosphodiesterase inhibitors as treatment for glaucoma, hydrocephalus and cerebral edema (cranial fluid volume dysfunction)” (THE GENERAL HOSPITAL CORPORATION, priority 1987, dated 1988) are described below.

The subject of test [1] is rabbits. The test is described as follows: Intraocular pressure and ocular observations after topical (eye drop) application. The class given is in vivo, rabbit. How it is done:
The measurement of intraocular pressure (IOP), was performed using procedures similar to those described in Nathanson, Brit. J. Pharmacol., 73:97 (1981) and Nathanson, Current Eye Res., 4:191 (1985). Briefly, male (3-5 kg), New Zealand white rabbits were housed under standard conditions and exposed to a 12 hr light-dark cycle. IOP was measured with a Perkins applanation tonometer after topical anesthesia with 0.4% benoxinate (and 0.25% sodium fluorescein). The tonometer had been calibrated previously by connecting the anterior chamber of enucleated rabbit eyes to a manometer (and reservoir) and taking tonometer readings at different pressures. A number of preliminary IOP readings were made in order to accommodate the animals to the measurement procedure. Readings were then taken just prior to drug or vehicle injection and at 3, 9, 20, 27, 44, 51, 72, and 144 hours post-injection.
A potent PDE inhibitor of the arylxanthine class, 1,3-dibutylxanthine, was applied unilaterally and topically to rabbit eyes in a 0.5% solution. […] The IOP was decreased 4 mm (Hg) in the ipsilateral eye (Figure 8).
(§1) Again there was about a 4 mm (Hg) decrease in intraocular pressure. […] This xanthine inhibited the enzyme with an IC₅₀ (concentration necessary for 50% enzyme inhibition) of 25 uM.
The effect of nitroglycerine eye drops on rabbit intraocular pressure was also measured. The IOP of 8 conscious, male albino rabbits (3-4 kg) was measured by applanation pnumatonometry after topical anesthesia with 0.4% benoxinate. Nitroglycerine in phosphate buffered saline, pH 7.4, was given unilaterally, in two 25µl drops spaced five minutes apart. Blood pressure and pulse rate were measured by a photoelectric detector using an automated external tail cuff. […] By 24 hours, pressure had returned to normal.

In test [2] the target is cGMP phosphodiesterase. Description: Inhibition of cGMP phosphodiesterase in ciliary process. The class given is biochemical. Conditions: Fig. 9B, read-out: IC₅₀ (concentration necessary for 50% enzyme inhibition).
Text: The ability of any compound to inhibit cGMP phosphodiesterase (PDE) activity in broken-cell preparations of choroid epithelial cells or ciliary process can be determined either 1) by measuring the decrease in rate of hydrolysis of an added amount of cyclic GMP by PDE (see, Methods Section of Nathanson et al., Mol. Pharmacol. 12:390-398 (1975)), or 2) by measuring the rate of accumulation of one of the breakdown products of cyclic GMP, such as 5'-GMP or guanosine (see method of Filburn et al., Anal. Biochem. 52:505-516 (1973)). Both of these are herein incorporated by reference.
as §1

Test [3] relates to adenylate cyclase. Description: Adenylate cyclase activity in P1 fractions of whole choroid. It is filed as biochemical, rabbit. Particulars: rANP at high concentrations. How it is done:
The effect of rANP on membrane-bound guanylate cyclase and adenylate cyclase activity in various brain-barrier tissues and tissue fractions from rabbit was compared with its activity in cerebrum and cerebellum. Guanylate cyclase was measured as the rate of cyclic GMP formation by modifications of the technique of Waldman et al., supra, incorporated herein by reference. Briefly, tissues were homogenized (10 mg wet weight per milliliter) in 50 mM tris-HCl, pH 8.0, 1 mM EDTA, 1 mM dithiothreitol, and 250 mM sucrose and centrifuged at 100,000g to obtain a P1 pellet. Reaction tubes contained (in 0.3 ml), 50 mM tris, pH 7.6, 6 mM MnCl₂, 0.5 mM 3-isobutyl, 1-methylxanthine (IBMX), 10 mM theophylline, 3 mM GTP, hormone (in 0.03 ml containing 2.5 mM ascorbic acid and 0.1% bovine serum albumin), and 0.06 ml of P1 fraction (40 to 60 ug of protein). The reaction (4 minutes at 30°C) was started by addition of GTP and terminated by addition of 0.3 ml of 150 mM sodium acetate (pH 4.0) and boiling for 3 minutes. Cyclic GMP formed was subsequently measured by radioimmunoassay as described in example 6, infra. Under these conditions, guanylate cyclase activity was linear with time and tissue concentration. Adenylate cyclase activity in P1 fractions was measured according to the method described by Nathanson, et al., Science; 204:843 (1979); Mol. Pharmacol. 18:199 (1980), see Figure 1C . […] Neurosci. […]

The target of test [4] is T1, guanylate cyclase (Oryctolagus cuniculus, UniProt G1TXB5).
T1 sequence (G1TXB5 28-1056): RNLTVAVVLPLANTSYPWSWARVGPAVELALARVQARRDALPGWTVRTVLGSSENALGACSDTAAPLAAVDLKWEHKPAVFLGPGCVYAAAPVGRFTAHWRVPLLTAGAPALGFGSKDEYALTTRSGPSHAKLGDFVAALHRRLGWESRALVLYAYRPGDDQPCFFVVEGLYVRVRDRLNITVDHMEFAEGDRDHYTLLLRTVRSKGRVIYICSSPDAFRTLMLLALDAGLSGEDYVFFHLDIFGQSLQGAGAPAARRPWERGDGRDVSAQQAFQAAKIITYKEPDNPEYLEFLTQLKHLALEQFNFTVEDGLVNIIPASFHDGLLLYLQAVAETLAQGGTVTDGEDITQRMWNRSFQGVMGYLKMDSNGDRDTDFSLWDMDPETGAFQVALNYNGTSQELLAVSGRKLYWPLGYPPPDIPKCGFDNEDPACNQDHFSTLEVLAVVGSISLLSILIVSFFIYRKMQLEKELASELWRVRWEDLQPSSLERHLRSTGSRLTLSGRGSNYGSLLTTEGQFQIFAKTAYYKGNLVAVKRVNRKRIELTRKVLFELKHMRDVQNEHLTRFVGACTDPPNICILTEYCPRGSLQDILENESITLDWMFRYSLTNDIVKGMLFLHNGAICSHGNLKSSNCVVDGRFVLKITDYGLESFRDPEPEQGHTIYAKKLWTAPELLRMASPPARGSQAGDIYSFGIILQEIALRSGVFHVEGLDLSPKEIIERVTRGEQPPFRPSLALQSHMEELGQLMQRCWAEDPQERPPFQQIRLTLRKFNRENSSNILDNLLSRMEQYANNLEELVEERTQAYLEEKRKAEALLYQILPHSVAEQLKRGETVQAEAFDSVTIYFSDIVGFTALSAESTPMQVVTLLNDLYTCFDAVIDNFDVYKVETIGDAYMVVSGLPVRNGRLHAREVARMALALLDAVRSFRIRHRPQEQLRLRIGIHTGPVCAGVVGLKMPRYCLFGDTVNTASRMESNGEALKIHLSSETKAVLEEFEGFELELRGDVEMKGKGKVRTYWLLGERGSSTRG
The test is described as follows: Atriopeptin-activated guanylate cyclase in ciliary process membrane (P1) fractions. Conditions: mean ± range of duplicate determinations. It is filed as biochemical, rabbit. More on the design: tissues were homogenized (10 mg wet weight per milliliter); from tissue; host or cells: rabbit cerebral microvessels, choroid plexus, kidney, ciliary process, pia-arachnoid, cerebellum; 100,000 g P1 pellet. How it is done: Ciliary process tips were obtained from male, 3-4 kg, New Zealand white rabbits, immediately following sacrifice with an overdose of ether, as described in Nathanson, Invest. Ophthal. Vis. Sci., 21:7981 (1982). The tissue was minced and homogenized (10 mg/ml) by hand in a glass-glass homogenizer in a buffer consisting of 50 mM Tris HCl, pH 8.0; 1mM EDTA, and 250mM sucrose. The homogenate was diluted 30-fold with buffer and centrifuged at 100,000 x g, to obtain a P1 fraction. The pellet was rehomogenized in the original volume and left on ice until use. P1 fractions were also prepared from wedges of rabbit kidney taken from the same animals. In some experiments, P1 fractions were prepared from iris and from ciliary body, as described in Nathanson, Proc. Natl. Acad. Sci. USA, 77:7420 (1980). Briefly, iris was removed from its attachment to the ciliary body, cleaned of adhering ciliary process tissue, washed, and homogenized as above. The ciliary muscle was cleaned of most remaining ciliary process tissue, freed from the underlying sclera by blunt and sharp dissection, and then washed and homogenized.
(§2) Atriopeptin-activated guanylate cyclase activity was measured as the rate of conversion of GTP to cyclic GMP. […]
For RIA, each tube contained (in 0.5ml), 50mM sodium acetate buffer (pH 6.2), 2mM EDTA, 1mg/ml bovine serum albumin, 0.1 ml of sample (or diluted sample), 8,000-15,000 cpm (about 5 fmole) of ¹²⁵I succinyl cyclic GMP tyrosine methyl ester, and antibody to bind 25-35% of the label. […] Activation constants (Ka) were determined from dose-response curves utilizing 12-14 data points (6-7 concentrations of hormone, in duplicate), each point representing the mean of triplicate RIA determinations.
Atriopeptin-activated guanylate cyclase activity was measured, as described in Example 5, in membranes from rabbit kidney and ciliary process prepared as in Example 4. […]

Test [5] addresses T1, guanylate cyclase. Description: Atriopeptin-activated guanylate cyclase in kidney membrane (P1) fractions. The class given is biochemical, rabbit. Also on record: tissues were homogenized (10 mg wet weight per milliliter); from tissue; host or cells: rabbit cerebral microvessels, choroid plexus, kidney, ciliary process, pia-arachnoid, cerebellum; 100,000 g P1 pellet. Particulars: mean ± range of duplicate determinations. How it is done: The effect of rANP on membrane-bound guanylate cyclase and adenylate cyclase activity in various brain-barrier tissues and tissue fractions from rabbit was compared with its activity in cerebrum and cerebellum. Guanylate cyclase was measured as the rate of cyclic GMP formation by modifications of the technique of Waldman et al., supra, incorporated herein by reference. Briefly, tissues were homogenized (10 mg wet weight per milliliter) in 50 mM tris-HCl, pH 8.0, 1 mM EDTA, 1 mM dithiothreitol, and 250 mM sucrose and centrifuged at 100,000g to obtain a P1 pellet. Reaction tubes contained (in 0.3 ml), 50 mM tris, pH 7.6, 6 mM MnCl₂, 0.5 mM 3-isobutyl, 1-methylxanthine (IBMX), 10 mM theophylline, 3 mM GTP, hormone (in 0.03 ml containing 2.5 mM ascorbic acid and 0.1% bovine serum albumin), and 0.06 ml of P1 fraction (40 to 60 ug of protein). The reaction (4 minutes at 30°C) was started by addition of GTP and terminated by addition of 0.3 ml of 150 mM sodium acetate (pH 4.0) and boiling for 3 minutes. Cyclic GMP formed was subsequently measured by radioimmunoassay as described in example 6, infra. Under these conditions, guanylate cyclase activity was linear with time and tissue concentration. Adenylate cyclase activity in P1 fractions was measured according to the method described by Nathanson, et al., Science; 204:843 (1979); Mol. Pharmacol. 18:199 (1980), see Figure 1C . […] Neurosci. Abstr., 10, 899 (1984); Nathanson, et al., Soc. Neurosci. Abstr., 12, 1257 (1986), incorporated herein by reference, but with a lower concentration (0.025%) of trypsin and a rotating tissue tumbler which allowed cleaner fractionation of epithelial cells from erythrocytes and vascular components.
Ciliary process tips were obtained from male, 3-4 kg, New Zealand white rabbits, immediately following sacrifice with an overdose of ether, as described in Nathanson, Invest. Ophthal. Vis. Sci., 21:7981 (1982). […]
as §2

Test [6] has as its system guanylate cyclase. Description: Ciliary process guanylate cyclase activity (Tables 2 and 3). The class given is biochemical. Particulars: Table 3; concentration not given.

For the compound `CCCCn1c(=O)c2[nH]cnc2n(CCCC)c1=O` [1,3-dibutylxanthine], the “IOP in the contralateral eye” value in test [1] (0.5% solution, unilateral topical) was “small decrease”. In addition, the “decrease of IOP in the ipsilateral eye” value in test [1] (0.5% solution, unilateral topical, rabbit eyes) is on record as 4 mm (Hg).
As for `CC(C)Cn1c(=O)n(C)c(=O)c2[nH]cnc21` [1-methyl-3-isobutyl-xanthine], the IC50 in test [2] was found to be 25 µM. Moreover, in test [1] (topical administration, Fig. 9A), the “decrease in intraocular pressure” value is recorded as ~4 mm (Hg).
With `CC(C)NCC(O)c1ccc(O)c(O)c1` (stereo not drawn) [isoproterenol], in test [3], the “effect on adenylate cyclase activity” value is recorded as “stimulated”.
As for “rANP 1-11 (SLRRSSCFGGR; Atrial natriuretic peptide; UniProt P01161 123-133, looked up, fragment)”, the “Vmax Stimulation (%) of Guanylate Cyclase Ciliary Process” value in test [4] is listed as 4 ± 6%. Also, the “Vmax Stimulation (%) of Guanylate Cyclase Kidney” value in test [5] is listed as 25 ± 6%.
Regarding sodium nitrate [COMPOUND "N"], the “CILIARY PROCESS GUANYLATE CYCLASE ACTIVITY (Percent Increase)” value in test [6] is recorded as 46 Percent Increase. In test [1] (0.1% eye drop preparation, rabbits), the “effect on IOP” value is “lowers IOP”.
